The values that follow come from US7829552B2, “Phosphorus-containing thyromimetics” (Metabasis Therapeutics, Inc., priority 2003, dated 2010).

The test system of data set [1] is Hypercholesterolemic rats. As to the kind of experiment: Cholesterol lowering in hypercholesterolemic (cholesterol-fed) rats. Type of data set: in vivo, rat. To be noted: for cholesterol lowering: hypercholesterolemic rats, 0.5 mg/kg/d orally; for efficacy in lowering cholesterol: another experiment, dose and route not given. The procedure:
Plasma cholesterol values were assessed prior to and following treatment and the effects of compound were expressed as a percentage change from the pre-dose cholesterol levels. […] Compounds were routinely tested for oral efficacy at a dose of 0.5 mg/kg/d. Hypercholesterolemic rats were treated with vehicle, Compound 13-1-cis (a HepDirect version of Compound 7), Compound 19-1 (a diethyl ester of Compound 19-2), Compound 13-9 (a HepDirect version of Compound 19-2), Compound 12-5 (a bisPom version of compound 19-2), or Compound 15-5 (a bisamidate version of Compound 19-2) at 0.5 mg/kg/d orally. Compound 13-1-cis has been extensively characterized and was used as the positive control for the assay.

Data set [2] concerns cholesterol-fed rat. As to the kind of experiment: Subacute studies in cholesterol-fed rats, IP once-a-day for seven days: serum cholesterol, heart weight, heart GPDH.
Description: The cholesterol-fed rat is an animal model of hypercholesterolemia generated by feeding the animals a diet with high cholesterol content.
Serum cholesterol values were assessed and the animals randomized into groups for treatment.
In another data set the test system is Sprague Dawley (SD) rat. The data set can be described thus: Cardiovascular activity of T3 mimetics in the Sprague Dawley rat, oral 7 days. In kind it is in vivo. To be noted: SD rats, p.o. 7 days, Compound 18 1 mg/kg, Compound cis-13-1 1-50 mg/kg/day. The source says: Method: […] The control group (n=6) was given vehicle only. […] On the 7th day after the start of dosing, animals were anesthetized with Isoflurane and the left ventricle cannulated with a high fidelity catheter tip transducer via the right carotid artery. Left ventricular pressure, its first derivative (LVdP/dt), lead I ECG, and heart rate (HR) triggered off the ECG waveform, were digitally recorded. LV dP/dt is a well accepted measure of ionotropic state. Systolic and diastolic aortic pressures were measured by retracting the catheter into the proximal aorta.

For data set [3] the following is noted: animals, e.g., rodent models and monkeys; cited from earlier work.
The test system of data set [4] is cholesterol-fed rat. To be noted: cited from earlier work.
Data set [5] concerns the target T1, human thyroid hormone receptors TRα1 (Homo sapiens, UniProt P10827).
T1 construct: made in house; host or cells: Sf9 insect cells (baculovirus co-infection of TR and RXRα), cell lysate
T1 sequence (P10827 1-410 isoform P10827-2): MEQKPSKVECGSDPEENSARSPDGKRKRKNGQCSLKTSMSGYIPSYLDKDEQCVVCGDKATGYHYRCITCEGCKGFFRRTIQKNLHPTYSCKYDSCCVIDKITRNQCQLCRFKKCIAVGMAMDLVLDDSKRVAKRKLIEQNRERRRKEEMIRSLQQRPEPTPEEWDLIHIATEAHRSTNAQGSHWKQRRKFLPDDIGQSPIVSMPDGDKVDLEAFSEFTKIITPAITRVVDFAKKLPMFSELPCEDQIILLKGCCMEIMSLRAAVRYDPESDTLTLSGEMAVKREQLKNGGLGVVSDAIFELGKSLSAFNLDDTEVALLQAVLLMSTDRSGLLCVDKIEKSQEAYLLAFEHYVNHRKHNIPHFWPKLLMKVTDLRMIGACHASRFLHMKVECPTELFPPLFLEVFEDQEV
T1 sequence (P19793 1-462 partner): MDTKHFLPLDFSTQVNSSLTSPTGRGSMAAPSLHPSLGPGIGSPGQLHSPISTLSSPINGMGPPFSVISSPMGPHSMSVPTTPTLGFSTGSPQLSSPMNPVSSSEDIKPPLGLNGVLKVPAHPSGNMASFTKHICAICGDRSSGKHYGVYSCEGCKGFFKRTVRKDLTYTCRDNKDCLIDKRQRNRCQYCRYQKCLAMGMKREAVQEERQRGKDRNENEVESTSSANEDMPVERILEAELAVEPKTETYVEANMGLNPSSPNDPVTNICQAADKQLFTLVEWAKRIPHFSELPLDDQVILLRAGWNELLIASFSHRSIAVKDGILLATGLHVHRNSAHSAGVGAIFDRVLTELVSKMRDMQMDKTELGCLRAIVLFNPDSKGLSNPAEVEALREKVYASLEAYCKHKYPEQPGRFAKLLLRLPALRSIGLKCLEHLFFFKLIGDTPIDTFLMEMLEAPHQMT
As to the kind of experiment: Receptor binding, scintillation proximity assay (SPA) with labeled T3; T3 binding also by gel filtration. To be noted: SPA data; read-out: Ki TRα. Here is the method:
(§1) Methods: Baculoviruses expressing TRα1, TRβ1 and RXRα were generated using cDNA and other reagents from Invitrogen (Carlsbad, Calif.). To produce TR/RXR heterodimer proteins, the sf9 insect cells were first grown to a density of 1−5×10^5 cells/mL. TRα1 or TRβ1 and RXRα baculovirus stocks were added to the cell culture with a ratio of 1 to 1 (multiplicity of infection=10). The cells were harvested three days after the infection.
(§2) Binding of compounds to either the TRα1 or TRβ1 were also performed by means of scintillation proximity assays (SPA). The SPA assay, a common method used for the quantitation of receptor-ligand equilibria, makes use of special beads coated with a scintillant and a capture molecule, copper, which binds to the histidine-tagged α or β receptor.

The target of data set [6] is T2, human thyroid hormone receptors TRβ1 (Homo sapiens, UniProt P10828).
T2 construct: made in house; host or cells: Sf9 insect cells (baculovirus co-infection of TR and RXRα), cell lysate
T2 sequence (P10828 1-461): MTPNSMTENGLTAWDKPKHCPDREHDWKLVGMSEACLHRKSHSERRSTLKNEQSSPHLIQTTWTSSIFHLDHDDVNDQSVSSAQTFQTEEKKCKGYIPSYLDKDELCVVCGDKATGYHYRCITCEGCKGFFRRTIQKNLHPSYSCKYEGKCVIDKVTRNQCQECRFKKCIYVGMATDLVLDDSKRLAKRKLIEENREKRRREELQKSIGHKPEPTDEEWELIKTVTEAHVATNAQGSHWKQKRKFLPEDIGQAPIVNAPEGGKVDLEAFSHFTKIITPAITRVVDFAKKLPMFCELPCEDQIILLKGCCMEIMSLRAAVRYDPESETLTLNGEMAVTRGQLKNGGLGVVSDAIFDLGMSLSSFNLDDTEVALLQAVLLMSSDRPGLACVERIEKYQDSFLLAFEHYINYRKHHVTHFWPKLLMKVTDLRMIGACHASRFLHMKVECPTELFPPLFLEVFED
T2 sequence (P19793 1-462 partner): T1 sequence (P19793 1-462 partner)
The data set is described as above. The note with it: SPA data; read-out: Ki TRβ. The procedure:
as §1, §2

Data set [7] relates to Normal rats (Sprague-Dawley). The data set can be described thus: Subacute studies in normal rats, continuous infusion by osmotic pump: liver/heart mGPDH activity, heart weight. The note with it: continuous infusion 1 mg/kg/day. In kind it is in vivo, rat. The source says: Efficacy endpoints include serum cholesterol, liver mitochondrial glycerol phosphate dehydrogenase (mGPDH) activity and the expression of relevant liver genes (e.g., the LDL-receptor, apoB, cpt-1, spot14 and apoAI). Safety parameters include heart weight, heart rate, heart mGPDH activity, the expression and key genes involved in cardiac structure and function (e.g., Serca2, HCN2, Kv1.5, MHCα, MHCβ, Alpha1c), and standard plasma chemistry analysis (liver enzymes, electrolytes, creatinine). Endocrine effects are monitored by analysis of serum thyroid stimulating hormone (TSH). [Taylor et al., Mol Pharmacol 52(3): 542-7 (1997); Weitzel et al., Eur Biochem 268(14):4095-4103 (2001)]
Methods: mGPDH activity was analyzed in isolated mitochondria using 2-(4-iodophenyl)-3-(4-nitrophenyl)-5-phenyl tetrazolium chloride as the terminal electron acceptor (Gardner R S, Analytical Biochemistry 59:272 (1974)). Commercially available GPDH was used in each assay as a standard (Sigma, St. Louis, Mo.). Changes in levels of mRNA for liver and heart genes are analyzed using reverse transcriptase followed by real-time PCR analysis. The analysis is performed using an iCycler instrument (Biorad) and appropriate primers by means of standard methodology [e.g., Schwab D A et al. (2000) Life Sciences 66: 1683-94]. The amounts of mRNA are normalized to an internal control, typically, cyclophilin. Serum TSH is measured using an enzyme immunoassay (EIA) kit designed for rat TSH (Amersham Pharmacia Biotech, Arlington Heights, Ill.).
Normal rats (Sprague-Dawley) were maintained on a standard diet. […] The compounds were brought up to an appropriate volume using PBS and BSA to maintain solubility within the pump. The compounds were chemically stable in the excipient at 37° C. for 7 days.
Values are expressed as percent of control. (Table 4)

For the next data set, the system named is Normal rats. As to the kind of experiment: Hepatic triglyceride content in normal rats chronically infused for 7 days. Type of data set: in vivo, rat. The procedure: Normal rats were chronically infused with Compound 7 for 7 days. Liver triglycerides were analyzed following lipid extraction by the Bligh Dyer method (Bligh E G and Dyer W J, A rapid method of total lipid extraction and purification. Can J Med. Sci. 1959 (August); 37(8):911-7, incorporated herein by reference). Total triglycerides were analyzed in the liver extracts by an enzymatic assay (Thermo Electron Corporation). Total lipid was normalized to initial liver weight and triglyceride content was normalized to liver weight. […] There was a 4% reduction in liver triglycerides for this group and the results were not statistically significant.

A value given as a limit tells only on which side of the number the result lay.

Regarding `CC(C)c1cc(Oc2c(Br)cc(CP(=O)(OCOC(=O)C(C)(C)C)OCOC(=O)C(C)(C)C)cc2Br)ccc1O` [Compound 12-5, Di-(pivaloyloxymethyl)[3,5-dibromo-4-(4′-hydroxy-3′-iso-propylphenoxy)benzyl]phosphonate], in [1], the cholesterol lowering entry is reported as “significant lowering of cholesterol”.
Consider `CC(C)c1cc(Oc2c(Cl)c(F)nc(NCP(=O)(OCOC(=O)C(C)(C)C)OCOC(=O)C(C)(C)C)c2Cl)ccc1O` [Compound 12-9], for which, in [1], the “efficacy in lowering cholesterol” value is “not efficiacous”.
The same measure, in the same setting: to `Cc1cc(OC[P@@]2(=O)OCC[C@@H](c3cccc(Br)c3)O2)cc(C)c1Cc1ccc(O)c(C(C)C)c1` [Compound 13-2-cis, 2-[(3,5-dimethyl-4-(4′-hydroxy-3′-iso-propylbenzyl)phenoxy)methyl]-4-(3-bromophenyl)-2-oxo-2λ^5-[1,3,2]-dioxaphosphonane] belongs “not efficiacous”.
Regarding `CCOC(=O)[C@H](C)NP(=O)(Cc1cc(Br)c(Oc2ccc(O)c(C(C)C)c2)c(Br)c1)N[C@@H](C)C(=O)OCC` [Compound 15-5, Di-N-(L-1-ethoxycarbonylethylamino)[3,5-dibromo-4-(4′-hydroxy-3′-iso-propylphenoxy)benzyl]phosphonamide], the cholesterol lowering result in data set [1] is given as “significant lowering of cholesterol”.
Take `Cc1cc(OCC(=O)O)cc(C)c1Cc1ccc(O)c(C(C)C)c1` [Compound 17, [3,5-dimethyl-4-(4′-hydroxy-3′-iso-propylbenzyl)phenoxy]acetic Acid]: in the data set with cholesterol-fed rat [2] (0.1-1 mg/kg/day, IP once-a-day for seven days), the serum cholesterol result is “significantly decreased serum cholesterol”. For the same compound, the “therapeutic window (separation between cholesterol lowering and cardiac toxicity)” value in the data set with cholesterol-fed rat [2] (cholesterol-fed rats) is “no separation between efficacy (cholesterol lowering) and toxicity”. Further, in the data set on cholesterol-fed rat [2] (cholesterol-fed rats, IP seven days, Compound 17 0.1-1 mg/kg/day, Compound 7 all doses), the cardiac hypertrophy result is on record as “Undesirable cardiac hypertrophy was observed”.
As to `CC(C)c1cc(Oc2c(Cl)cc(CC(=O)O)cc2Cl)ccc1O` [Compound 18, 3,5-dichloro-4-[4′-hydroxy-3′-iso-propylphenoxy]benzeneacetic Acid, reference compound], in the data set with Sprague Dawley (SD) rat (vs control), the Heart weight result was “significantly increased” and the “heart weight normalized to body weight” value is given as “significantly increased”. Further, in the data set on Sprague Dawley (SD) rat (vs vehicle), the HR result is “marked and statistically significant increases”; the “LV dP/dt” value was “marked and statistically significant increases”; the systolic aortic pressure result was “marked and statistically significant increases”. For the same compound, the weight loss entry in [3] is “result in weight loss in animals”. Also, the “therapeutic index (TI) with respect to heart rate increases” value in the data set with cholesterol-fed rat [4] is on record as 40.
For the compound `CCOP(=O)(Cc1cc(Br)c(Oc2ccc(O)c(C(C)C)c2)c(Br)c1)OCC` [Compound 19-1], the change in vivo at 0.5 mg/kg/day in data set [1] (Rattus norvegicus, po, read-out: % Cholesterol Lowering) was -6.56%.
As for `Cc1cc(CCP(=O)(O)O)cc(C)c1Cc1ccc(F)c(C(C)C)c1` [Compound 42-2], the Ki in data set [5] and in [6] was over 2000 nM throughout.
Take `N[C@@H](Cc1cc(I)c(Oc2ccc(O)c(I)c2)c(I)c1)C(=O)O` [Compound T3, triiodothyronine]: in data set [7], the “Heart GPDH” value is on record as 284% of control, the “Heart weight” value is 146% of control and the “Liver GPDH” value is 406% of control. The “decrease in hepatic triglyceride content” value with Normal rats was determined as 4%.

Usually Ki stands for the equilibrium dissociation constant of an inhibitor or competing ligand from its target.
